From US9334290B2, “Substituted tetrahydrocarbazole and carbazole carboxamide compounds” (Bristol-Myers Squibb Company, priority 2013, dated 2016)
Where two headings read alike, the source gives them in different places.

Experiments:
[1] = test system: CD69 expression on B cells in human whole blood; assay: Whole blood assay of BCR-stimulated CD69 expression on B cells; format: cell-based
[2] = biological target: Jak2 tyrosine kinase (Homo sapiens (Human), UniProt O60674); assay: Jak2 tyrosine kinase assay; format: biochemical
Chain of Jak2 tyrosine kinase (O60674 whole entry): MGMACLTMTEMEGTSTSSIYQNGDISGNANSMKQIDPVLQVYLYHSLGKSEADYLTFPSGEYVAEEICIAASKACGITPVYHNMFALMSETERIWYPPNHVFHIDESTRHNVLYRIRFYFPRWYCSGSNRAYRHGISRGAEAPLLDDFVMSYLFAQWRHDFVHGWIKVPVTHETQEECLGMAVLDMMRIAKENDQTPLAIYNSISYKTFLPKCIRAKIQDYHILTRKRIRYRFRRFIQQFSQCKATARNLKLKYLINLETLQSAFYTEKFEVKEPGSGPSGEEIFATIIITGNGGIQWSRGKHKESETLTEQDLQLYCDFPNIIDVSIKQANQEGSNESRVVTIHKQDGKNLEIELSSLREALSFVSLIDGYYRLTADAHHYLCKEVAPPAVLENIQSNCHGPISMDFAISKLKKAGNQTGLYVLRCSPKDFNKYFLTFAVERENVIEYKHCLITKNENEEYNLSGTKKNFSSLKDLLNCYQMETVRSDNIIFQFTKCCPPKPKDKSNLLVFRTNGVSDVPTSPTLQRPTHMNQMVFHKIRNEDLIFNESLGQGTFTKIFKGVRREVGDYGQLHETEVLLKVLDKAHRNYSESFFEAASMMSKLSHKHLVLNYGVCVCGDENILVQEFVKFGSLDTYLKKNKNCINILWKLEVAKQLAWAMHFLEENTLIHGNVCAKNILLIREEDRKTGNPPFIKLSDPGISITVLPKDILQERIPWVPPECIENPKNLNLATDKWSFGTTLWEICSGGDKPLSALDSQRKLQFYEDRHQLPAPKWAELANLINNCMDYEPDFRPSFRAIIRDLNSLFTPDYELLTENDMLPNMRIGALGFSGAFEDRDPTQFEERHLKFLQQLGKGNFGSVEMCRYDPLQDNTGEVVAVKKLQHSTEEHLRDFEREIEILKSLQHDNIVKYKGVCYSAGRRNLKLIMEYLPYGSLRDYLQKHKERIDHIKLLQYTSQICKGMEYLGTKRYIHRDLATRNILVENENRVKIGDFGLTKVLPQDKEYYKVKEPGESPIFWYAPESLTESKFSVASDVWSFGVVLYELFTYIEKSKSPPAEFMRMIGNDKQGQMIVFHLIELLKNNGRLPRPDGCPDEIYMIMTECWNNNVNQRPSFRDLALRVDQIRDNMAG

[3] = biological target: human recombinant Btk (Homo sapiens (Human), UniProt Q06187); assay: Human Recombinant Btk enzyme assay; format: biochemical; details: read-out: Btk IC50 value
Chain of human recombinant Btk (Q06187 whole entry): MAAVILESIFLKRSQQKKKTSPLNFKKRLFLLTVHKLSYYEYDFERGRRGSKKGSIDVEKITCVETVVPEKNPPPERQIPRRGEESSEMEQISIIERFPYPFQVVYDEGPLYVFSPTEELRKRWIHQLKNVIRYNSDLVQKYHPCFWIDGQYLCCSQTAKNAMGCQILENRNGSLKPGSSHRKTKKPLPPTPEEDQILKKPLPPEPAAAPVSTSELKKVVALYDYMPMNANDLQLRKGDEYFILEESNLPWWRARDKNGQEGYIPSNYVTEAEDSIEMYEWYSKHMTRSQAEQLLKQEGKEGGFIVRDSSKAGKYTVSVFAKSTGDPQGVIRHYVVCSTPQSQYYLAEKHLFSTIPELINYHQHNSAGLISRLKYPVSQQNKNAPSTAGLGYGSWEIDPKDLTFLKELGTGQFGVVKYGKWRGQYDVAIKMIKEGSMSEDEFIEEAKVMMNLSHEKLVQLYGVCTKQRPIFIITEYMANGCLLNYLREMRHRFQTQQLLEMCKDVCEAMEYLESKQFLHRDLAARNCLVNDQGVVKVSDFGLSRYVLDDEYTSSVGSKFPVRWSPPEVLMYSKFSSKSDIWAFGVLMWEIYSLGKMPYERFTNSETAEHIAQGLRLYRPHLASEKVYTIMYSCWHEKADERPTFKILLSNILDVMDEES

[4] = BCR-stimulated, read-out: CD69 IC50 values
[5] = Homo sapiens, B-cell, BCR-stimulated, read-out: CD69 IC50 values

| SMILES | IC50 [1, 4] [µM] | IC50 [2] [µM] | further results |
| --- | --- | --- | --- |
| Cn1c(=O)n(-c2cccc(-c3c(F)cc(C(N)=O)c4[nH]c5cc(C(C)(C)O)ccc5c34)c2Cl)c(=O)c2cccc(F)c21 [Example 61] | 0.093 | – | – |
| [2H]C([2H])([2H])n1c(=O)n(-c2cccc(-c3c(Cl)cc(C(N)=O)c4[nH]c5cc(C(C)(C)O)ccc5c34)c2C)c(=O)c2cccc(F)c21 (single isomer, unassigned) [Example 12] | – | 1.9 | IC50 [1, 5]: 0.19 µM |
| Cc1c(-c2c(Cl)cc(C(N)=O)c3[nH]c4cc(C(C)(C)O)ccc4c23)cccc1-n1c(=O)ccn(-c2ccc(F)cc2)c1=O [Example 23, 3-Chloro-4-(3-(3-(4-fluorophenyl)-2,6-dioxo-2,3-dihydropyrimidin-1(6H)-yl)-2-methylphenyl)-7-(2-hydroxypropan-2-yl)-9H-carbazole-1-carboxamide] | 0.098 | – | – |
| Cc1c(-c2c(F)cc(C(N)=O)c3[nH]c4c(c23)CC[C@@H](C(C)(C)O)C4)cccc1-n1c(=O)[nH]c2c(F)cccc2c1=O (single isomer, unassigned) [Example 67] | – | – | IC50 [3]: 0.00049 µM |
| Cc1c(-c2c(Cl)cc(C(N)=O)c3[nH]c4cc(C(C)(C)O)ccc4c23)cccc1-n1c(=O)cc2c(Cl)cccn2c1=O [Example 32, 3-Chloro-4-(R)-(3-(R)-(5-chloro-1,3-dioxo-1H-pyrido[1,2-c]pyrimidin-2(3H)-yl)-2-methylphenyl)-7-(2-hydroxypropan-2-yl)-9H-carbazole-1-carboxamide] | 0.16 | – | – |
| Cc1c(-c2c(F)cc(C(N)=O)c3[nH]c4cc(C(C)(C)O)ccc4c23)cccc1-n1c(=O)[nH]c2c(F)cccc2c1=O [Example 21, 3-Fluoro-4-(R)-(3-(R)-(8-fluoro-2,4-dioxo-1,2-dihydroquinazolin-3(4H)-yl)-2-methylphenyl)-7-(2-hydroxypropan-2-yl)-9H-carbazole-1-carboxamide] | 0.017 | – | – |
| Cc1c(-c2c(Cl)cc(C(N)=O)c3[nH]c4c(c23)CC[C@H](C(C)(C)O)C4)cccc1-n1c(=O)[nH]c2c(F)cccc2c1=O (single isomer, unassigned) [Example 55] | 0.044 | 9 | – |
| Cc1c(-c2c(Cl)cc(C(N)=O)c3[nH]c4cc(C(C)(C)O)ccc4c23)cccc1-n1c(=O)ccn(-c2ccc(F)cc2)c1=O [Example 24, 3-Chloro-4-(R)-(3-(3-(4-fluorophenyl)-2,6-dioxo-2,3-dihydropyrimidin-1(6H)-yl)-2-methylphenyl)-7-(2-hydroxypropan-2-yl)-9H-carbazole-1-carboxamide] | 0.021 | – | – |
| Cc1c(-c2c(F)cc(C(N)=O)c3[nH]c4cc(C(C)(C)O)ccc4c23)cccc1-n1c(=O)[nH]c2c(F)cc(F)cc2c1=O [Example 50] | 0.12 | – | – |
| Cc1c(-c2c(Cl)cc(C(N)=O)c3[nH]c4cc(C(C)(C)O)ccc4c23)cccc1-n1c(=O)cc2c(Cl)cccn2c1=O [Example 33, 3-Chloro-4-(R)-(3-(S)-(5-chloro-1,3-dioxo-1H-pyrido[1,2-c]pyrimidin-2(3H)-yl)-2-methylphenyl)-7-(2-hydroxypropan-2-yl)-9H-carbazole-1-carboxamide] | 0.024 | – | – |
| Cc1c(-c2c(Cl)cc(C(N)=O)c3[nH]c4cc(C(C)(C)O)ccc4c23)cccc1-n1c(=O)c2cccc(F)c2n(C)c1=O (single isomer, unassigned) [Example 1] | 0.19 | – | – |
| Cc1c(-c2c(Cl)cc(C(N)=O)c3[nH]c4c(c23)CC[C@H](C(C)(C)O)C4)cccc1-n1c(=O)c2cccc(F)c2n(C)c1=O [Example 25, 6-Chloro-5-(3-(8-fluoro-1-methyl-2,4-dioxo-1,2-dihydroquinazolin-3(4H)-yl)-2-methylphenyl)-2-(S)-(2-hydroxypropan-2-yl)-2,3,4,9-tetrahydro-1H-carbazole-8-carboxamide] | – | > 2 | – |
| Cc1c(-c2ccc(C(N)=O)c3[nH]c4cc(C(C)(C)O)ccc4c23)cccc1-n1cnc2ccccc2c1=O [Comparative Example 75, 7-(2-Hydroxypropan-2-yl)-4-(2-methyl-3-(4-oxoquinazolin-3(4H)-yl)phenyl)-9H-carbazole-1-carboxamide, reference compound] | – | – | IC50 ([1]; Homo sapiens, B-cell, 18 h, anti-IgM + IL-4 stimulation, 18 h, read-out: CD69 IC50): 0.65 µM |
| Cc1c(-c2c(F)cc(C(N)=O)c3[nH]c4cc(C(C)(C)O)ccc4c23)cccc1-n1c(=O)[nH]c2c(Cl)cccc2c1=O [Example 53] | – | – | IC50 [1, 5]: 0.11 µM |
| Cc1c(-c2c(F)cc(C(N)=O)c3[nH]c4c(c23)CC[C@H](C(C)(C)O)C4)cccc1-n1c(=O)[nH]c2c(F)cccc2c1=O (single isomer, unassigned) [Example 59] | – | – | IC50 [3]: 0.0009 µM |

More lines, main results first:

| IC50 [1, 4] [µM] | IC50 [2] [µM] | SMILES | further results |
| --- | --- | --- | --- |
| 0.16 | – | Cn1c(=O)n(-c2cccc(-c3c(Cl)cc(C(N)=O)c4[nH]c5cc(C(C)(C)O)ccc5c34)c2Cl)c(=O)c2cccc(F)c21 [Example 44, 3-Chloro-4-(2-chloro-3-(8-fluoro-1-methyl-2,4-dioxo-1,2-dihydroquinazolin-3(4H)-yl)phenyl)-7-(2-hydroxypropan-2-yl)-9H-carbazole-1-carboxamide] | – |
| 0.14 | > 2 | Cc1c(-c2c(Cl)cc(C(N)=O)c3[nH]c4c(c23)CC[C@H](C(C)(C)O)C4)cccc1-n1c(=O)[nH]c2c(F)cccc2c1=O (single isomer, unassigned) [Example 56] | – |
| – | 0.27 | Cc1c(-c2c(Cl)cc(C(N)=O)c3[nH]c4c(c23)CC[C@H](C(C)(C)O)C4)cccc1-n1c(=O)[nH]c2c(F)cc(F)cc2c1=O (single isomer, unassigned) [Example 57] | Ratio of Jak2/Btk IC50 values ([2]; selectivity of Btk over Jak2): 1100; IC50 [3]: 0.00025 µM |
| – | 1.1 | [2H]C([2H])([2H])n1c(=O)n(-c2cccc(-c3c(F)cc(C(N)=O)c4[nH]c5cc(C(C)(C)O)ccc5c34)c2C)c(=O)c2cccc(F)c21 [Example 52] | – |
| 0.056 | – | Cc1c(-c2c(F)cc(C(N)=O)c3[nH]c4cc(C(C)(C)O)ccc4c23)cccc1-n1c(=O)c2cccc(F)c2n(C)c1=O (atropisomer, axis not shown) [Example 18, 3-Fluoro-4-(3-(S)-(8-fluoro-1-methyl-2,4-dioxo-1,2-dihydroquinazolin-3(4H)-yl)-2-methylphenyl)-7-(2-hydroxypropan-2-yl)-9H-carbazole-1-carboxamide] | – |
| 0.065 | 0.91 | Cc1c(-c2c(Cl)cc(C(N)=O)c3[nH]c4cc(C(C)(C)O)ccc4c23)cccc1-n1c(=O)c2cccc(F)c2n(C)c1=O (atropisomer, axis not shown) [Example 11, 3-Chloro-4-(R)-(3-(S)-(8-fluoro-1-methyl(d3)-2,4-dioxo-1,2-dihydroquinazolin-3(4H)-yl)-2-methylphenyl)-7-(2-hydroxypropan-2-yl)-9H-carbazole-1-carboxamide] | – |
| 0.071 | – | Cn1c(=O)n(-c2cccc(-c3c(Cl)cc(C(N)=O)c4[nH]c5cc(C(C)(C)O)ccc5c34)c2Cl)c(=O)c2ccccc21 [Example 43, 3-Chloro-4-(R)-(2-chloro-3-(1-methyl-2,4-dioxo-1,2-dihydroquinazolin-3(4H)-yl)phenyl)-7-(2-hydroxypropan-2-yl)-9H-carbazole-1-carboxamide] | – |
| 0.11 | > 2 | Cc1c(-c2c(F)cc(C(N)=O)c3[nH]c4c(c23)CC[C@H](C(C)(C)O)C4)cccc1-n1c(=O)cc2c(Cl)cccn2c1=O (single isomer, unassigned) [Example 65] | – |
| 0.068 | – | Cn1c(=O)n(-c2cccc(-c3c(Cl)cc(C(N)=O)c4[nH]c5cc(C(C)(C)O)ccc5c34)c2Cl)c(=O)c2cccc(F)c21 [Example 45, 3-Chloro-4-(R)-(2-chloro-3-(8-fluoro-1-methyl-2,4-dioxo-1,2-dihydroquinazolin-3(4H)-yl)phenyl)-7-(2-hydroxypropan-2-yl)-9H-carbazole-1-carboxamide] | – |
| 0.12 | – | Cc1c(-c2c(F)cc(C(N)=O)c3[nH]c4cc(C(C)(C)O)ccc4c23)cccc1-n1c(=O)[nH]c2c(F)cccc2c1=O [Example 22, 3-Fluoro-4-(R)-(3-(S)-(8-fluoro-2,4-dioxo-1,2-dihydroquinazolin-3(4H)-yl)-2-methylphenyl)-7-(2-hydroxypropan-2-yl)-9H-carbazole-1-carboxamide] | – |
| 0.21 | – | Cn1c(=O)n(-c2cccc(-c3c(Cl)cc(C(N)=O)c4[nH]c5cc(C(C)(C)O)ccc5c34)c2Cl)c(=O)c2ccccc21 [Example 42, 3-Chloro-4-(2-chloro-3-(1-methyl-2,4-dioxo-1,2-dihydroquinazolin-3(4H)-yl)phenyl)-7-(2-hydroxypropan-2-yl)-9H-carbazole-1-carboxamide] | – |
| – | > 2 | Cc1c(-c2c(F)cc(C(N)=O)c3[nH]c4c(c23)CC[C@H](C(C)(C)O)C4)cccc1-n1c(=O)cc2c(Cl)cccn2c1=O (single isomer, unassigned) [Example 64] | – |
| 0.16 | 7.5 | Cc1c(-c2c(Cl)cc(C(N)=O)c3[nH]c4c(c23)CC[C@H](C(C)(C)O)C4)cccc1-n1c(=O)c2cccc(F)c2n(C)c1=O (atropisomer, axis not shown) [Example 26, 6-Chloro-5-(R)-(3-(S)-(8-fluoro-1-methyl-2,4-dioxo-1,2-dihydroquinazolin-3(4H)-yl)-2-methylphenyl)-2-(S)-(2-hydroxypropan-2-yl)-2,3,4,9-tetrahydro-1H-carbazole-8-carboxamide] | – |
| 0.09 | – | Cc1c(-c2c(Cl)cc(C(N)=O)c3[nH]c4cc(C(C)(C)O)ccc4c23)cccc1-n1c(=O)c2cccc(F)c2n(C)c1=O (single isomer, unassigned) [Example 2] | – |
| 0.016 | – | Cc1c(-c2c(F)cc(C(N)=O)c3[nH]c4cc(C(C)(C)O)ccc4c23)cccc1-n1c(=O)[nH]c2c(F)cccc2c1=O [Example 20, 3-Fluoro-4-(3-(8-fluoro-2,4-dioxo-1,2-dihydroquinazolin-3(4H)-yl)-2-methylphenyl)-7-(2-hydroxypropan-2-yl)-9H-carbazole-1-carboxamide] | – |
| 0.12 | – | Cc1c(-c2c(F)cc(C(N)=O)c3[nH]c4cc(C(C)(C)O)ccc4c23)cccc1-n1c(=O)c2cccc(F)c2n(C)c1=O [Example 17, 3-Fluoro-4-(3-(8-fluoro-1-methyl-2,4-dioxo-1,2-dihydroquinazolin-3(4H)-yl)-2-methylphenyl)-7-(2-hydroxypropan-2-yl)-9H-carbazole-1-carboxamide] | – |
